Assay results: article PMC7565389, “Natural Potent NAAA Inhibitor Atractylodin Counteracts LPS-Induced Microglial Activation” (Frontiers in Pharmacology, 2020)
Read-outs that look alike come from different tables or passages of the source. Values belong to the molecule of their own block, whether it stands above or below them.

How the values were obtained:
[1] = biological target: T1, recombinant human NAAA protein (Homo sapiens, UniProt Q02083); assay: Fluorometric NAAA activity assay (PAMCA hydrolysis); format: biochemical
T1 construct: purchased R&D Systems (Shanghai, China)
T1 sequence (Q02083 29-359): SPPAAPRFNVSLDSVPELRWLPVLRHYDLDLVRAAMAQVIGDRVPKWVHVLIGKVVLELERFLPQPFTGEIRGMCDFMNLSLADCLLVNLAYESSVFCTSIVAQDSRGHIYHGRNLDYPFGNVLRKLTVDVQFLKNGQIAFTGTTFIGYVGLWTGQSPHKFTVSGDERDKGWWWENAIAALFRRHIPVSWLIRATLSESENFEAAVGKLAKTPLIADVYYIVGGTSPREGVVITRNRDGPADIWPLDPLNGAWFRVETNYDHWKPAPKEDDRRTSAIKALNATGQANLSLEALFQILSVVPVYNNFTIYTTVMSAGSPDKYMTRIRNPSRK
Description: (§1) Fluorometric NAAA activity measurement was used to evaluate the natural products inhibitory potency towards NAAA as previously reported with minor modifications ([West et al., 2012a]; [West et al., 2012b]). Briefly, in our initial screening, recombinant human NAAA protein was diluted in NAAA buffer (3 mM DTT, 0.1% Triton X-100, 0.05% BSA, 150 mM NaCl, pH 4.5) to 0.25 µg/ml and then 20 µL were transferred to a 96-well half-volume black plate followed by the addition of 2 µL of DMSO-diluted compounds at a final concentration of 50 µM. After shaking for 10 min on a shaking plate, 28 µL of the N-(4-methylcoumarin)-palmitamide (PAMCA) substrate in assay buffer (final concentration: 25 µM) were added, and the reaction was allowed to proceed at 37 °C for 30 min, then enzyme activity was monitored at a wavelength of 460 nm (excitation wavelength: 360 nm) on a multimode reader (Mithras LB 943, Berthold, Germany). Compounds showing > 50% inhibition were subjected to a series of two-fold dilutions for IC50 testing.
Although several compounds have been discovered as NAAA inhibitors, reports on natural derivatives are limited. Here, we constructed a small library of 465 natural compounds consisting of alkaloids, flavonoids, coumarins, terpenoids, polyacetylenes, and aliphatics for activity screening. First, we established a high-throughput screening system for NAAA inhibitors using the fluorogenic compound N-(4-methyl coumarin) palmitamide (PAMCA) as hydrolyzed substrate ([West et al., 2012b]). PAMCA was metabolized to the fluorescent 7-amino-4-methyl coumarin (AMC) and palmitic acid by NAAA at pH 4.5 ( Figure 1A ). […] To further confirm the effectiveness of the screening system, another two reported potent NAAA inhibitors, F96 and AM9053, were tested.

[2] = test system: LPS-induced BV-2 microglial cells; assay: Nitrite production in LPS-induced BV-2 cells (Griess reagent); format: cell-based
Description: (§2) The microglia cell line BV-2 was cultured in DMEM medium containing 10% fetal bovine serum and antibiotics (100 U/ml penicillin, 100 µg/ml streptomycin) and maintained in a humidified 5% CO2 incubator at 37°C. For the experiment, cells were seeded overnight into a 24-well plate for the cytokine assay or into 100-mm dishes for NAE extraction and quantification. The next day, the cells were incubated with fresh culture medium containing the indicated concentration of atractylodin for 0.5 h and following lipopolysaccharide (LPS) treatment (1 μg/ml). Cells incubated with vehicle only (DMSO, 0.1%) were used as control.
The concentration of nitrite in the culture medium was determined using a Griess reagent kit that reflected the amount of NO released by cultured cells. Culture supernatants (75 μl) were reacted with an equal volume of Griess reagent kit for 30 min at room temperature, and the absorbance of the diazonium compound at a wavelength of 560 nm was measured.
The cytotoxicity of the NAAA inhibitors on BV-2 cells was assessed using CCK-8. […] NAAA is highly expressed in immune cells, including tissue macrophages, monocytes, and microglia. […] The concentrations of nitrite were monitored using the Griess reagent kit.

LPS-induced BV-2 cells [3] = assay: Pro-inflammatory cytokine release in LPS-induced BV-2 cells (ELISA); format: cell-based; settings: culture supernatant
Description: as §2
LPS was used to activate BV-2 cells to further assess the anti-inflammatory effects of atractylodin. […] Moreover, the ability to inhibit these inflammatory factors was stronger than the positive control drug dexamethasone (Dex) at a concentration of 10 µM ( Figure 6 ).

LPS-induced BV-2 cells [4] = assay: Cellular PEA and OEA levels in LPS-induced BV-2 cells (HPLC-MS/MS); format: cell-based; settings: 10 μM, LPS 6 h, compared to LPS-treated control
Description: as §2
FAEs were extracted from BV-2 cells as previously reported ([Yang et al., 2015]). […] An ABI 3200 Q-Trap mass spectrometer (Applied Biosystems, Concord, Canada equipped with a 1100-LC system (Agilent, Shanghai, China) was used in this experiment. The precursor/product ion transitions in multiple reaction monitoring mode (MRM) were used for mass analysis and quantitation. The molecular ions were monitored at m/z 300.2/62.0 for PEA, m/z 326.1/62.0 for OEA, m/z 348.00/62.00 for AEA, m/z 379.10/287.10 for 2-AG, and m/z 313.1/62.0 for C17:1 FAE.
To further investigate the contribution of endogenous fatty acid ethanolamide to the anti-inflammatory effect of atractylodin, cellular PEA and OEA levels were measured by HPLC-MS/MS analysis. […]

NAAA = settings: read-out: IC50, NAAA inhibition (reported), cited from earlier work
[5] = substrate: CCCCCCCCCCCCCCCC(=O)Nc1ccc2c(C)cc(=O)oc2c1; assay: Fluorometric NAAA activity assay (PAMCA hydrolysis); format: biochemical, human; settings: other: pH 4.5, 37.0 °C
Description: as §1
Although several compounds have been discovered as NAAA inhibitors, reports on natural derivatives are limited. Here, we constructed a small library of 465 natural compounds consisting of alkaloids, flavonoids, coumarins, terpenoids, polyacetylenes, and aliphatics for activity screening. […]

[6] = recombinant human NAAA, PAMCA 25 µM, pH 4.5, 37 °C 30 min, read-out: IC50, NAAA inhibition

Molecule: COc1ccc2cc1Oc1ccc(cc1)CC1c3cc(c(OC)cc3CCN1C)Oc1c(OC)c(OC)cc3c1C(C2)N(C)CC3 [D-tetrandrine]
IC50 [1, 6]: 52.9 ± 3.05 µM

IC50 [1, 6]: 37.8 ± 4.04 µM
Molecule: O=c1cc(-c2ccc(O)c(-c3c(O)cc(O)c4c(=O)cc(-c5ccc(O)cc5)oc34)c2)oc2cc(O)cc(O)c12 [amentoflavone]

IC50 [1, 6]: 23.8 ± 1.06 µM
Molecule: COc1cc(C[C@H](C)[C@H](C)Cc2ccc3c(c2)OCO3)ccc1O [anwuligan]

Molecule: C/C=C/C#CC#C/C=C/c1ccco1 [atractylodin]
IC50 [1]: 2.81 µM
time course of NAAA inhibition (pre-incubation with hNAAA) [1]: rapid and unaffected by longer pre-incubation
mechanism of NAAA inhibition (Lineweaver-Burk plot) ([1]; atractylodin 3 µM): competitive
NAAA activity after dialysis of the NAAA-inhibitor mixture ([1]; dialysis in PBS buffer): fully recovered
decrease of LPS-induced nitrite production ([2]; 10 µM, 30 min pre-incubation, LPS 24 h, compared with vehicle group): 68.21%
inhibition of nitrite generation ([2]; 1–10 µM, LPS-induced BV-2 cells): in a dose-dependent manner
inhibition of IL-1β production (LPS-induced BV-2 cells [3]): in a dose-dependent manner
inhibition of IL-6 production (LPS-induced BV-2 cells [3]): in a dose-dependent manner
inhibition of TNF-α production (LPS-induced BV-2 cells [3]): in a dose-dependent manner
cellular OEA level (LPS-induced BV-2 cells [4]): significantly increased
cellular PEA level (LPS-induced BV-2 cells [4]): significantly increased

Molecule: CC(=O)Oc1cccc2c1C(=O)c1c(OC(C)=O)cc(C(=O)O)cc1C2=O [diacerein]
IC50 (NAAA; ref Petrosino et al., 2015): 7.2 µM

Molecule: C\C(C=C=C1C(C)(C)C[C@H](O)C[C@@]1(C)O)=C/C=C/C(C)=C/C=C/C=C(C)/C=C/C=C(\C)C(=O)C[C@@]12O[C@]1(C)C[C@@H](O)CC2(C)C [fucoxanthinol]
IC50 (NAAA; ref Jin et al., 2020): 12.8 µM

Molecule: c1cc2c(cc1[C@H]1OC[C@H]3[C@@H]1CO[C@@H]3c1ccc3c(c1)OCO3)OCO2 [sesamin]
IC50 [1, 6]: 30.2 ± 2.09 µM

B1: recombinant human NAAA protein (Homo sapiens) (protein)
chain: SPPAAPRFNVSLDSVPELRWLPVLRHYDLDLVRAAMAQVIGDRVPKWVHVLIGKVVLELERFLPQPFTGEIRGMCDFMNLSLADCLLVNLAYESSVFCTSIVAQDSRGHIYHGRNLDYPFGNVLRKLTVDVQFLKNGQIAFTGTTFIGYVGLWTGQSPHKFTVSGDERDKGWWWENAIAALFRRHIPVSWLIRATLSESENFEAAVGKLAKTPLIADVYYIVGGTSPREGVVITRNRDGPADIWPLDPLNGAWFRVETNYDHWKPAPKEDDRRTSAIKALNATGQANLSLEALFQILSVVPVYNNFTIYTTVMSAGSPDKYMTRIRNPSRK
notes: purchased R&D Systems (Shanghai, China)
Km [5]: 17.92 ± 3.54 µM
